# In PubChem BioAssay AID1259407 (Chemical Carcinogenesis Research Information System (CCRIS), 2018):
# Calls of active or inactive are those of the source. How the calls were made is not given here.
# Test system: CCRIS mutagenicity, Ames/micronucleus/aberration tests
# Assay: CCRIS mutagenicity studies
# [1] = Test System: AMES SALMONELLA TYPHIMURIUM, Strain/Indicator: TA98, Metabolic Activation: NONE, Method: STANDARD PLATE
# [2] = Test System: AMES SALMONELLA TYPHIMURIUM, Strain/Indicator: TA100, Metabolic Activation: NONE, Method: STANDARD PLATE
# [3] = Test System: AMES SALMONELLA TYPHIMURIUM, Strain/Indicator: TA102, Metabolic Activation: NONE, Method: STANDARD PLATE
# [4] = Test System: AMES SALMONELLA TYPHIMURIUM, Strain/Indicator: TA1537, Metabolic Activation: NONE, Method: STANDARD PLATE
smiles,measurement,setting,value
CC1(C)O[C@@H]1COc1c2occc2cc2ccc(=O)oc12,mutagenic call,"Test System: AMES SALMONELLA TYPHIMURIUM, Strain/Indicator: TA92, Metabolic Activation: NONE, Method: SPOT TEST",inactive; negative
same,mutagenic call,"Test System: AMES SALMONELLA TYPHIMURIUM, Strain/Indicator: TA92, Metabolic Activation: RAT, LIVER, S-9, AROCLOR 1254, Method: SPOT TEST",inactive; negative
same,mutagenic call,"Test System: AMES SALMONELLA TYPHIMURIUM, Strain/Indicator: TA94, Metabolic Activation: NONE, Method: SPOT TEST",inactive; negative
same,mutagenic call,"Test System: AMES SALMONELLA TYPHIMURIUM, Strain/Indicator: TA94, Metabolic Activation: RAT, LIVER, S-9, AROCLOR 1254, Method: SPOT TEST",inactive; negative
same,mutagenic call,"Test System: AMES SALMONELLA TYPHIMURIUM, Strain/Indicator: TA97, Metabolic Activation: NONE, Method: SPOT TEST",inactive; negative
same,mutagenic call,"Test System: AMES SALMONELLA TYPHIMURIUM, Strain/Indicator: TA97, Metabolic Activation: RAT, LIVER, S-9, AROCLOR 1254, Method: SPOT TEST",inactive; negative
same,mutagenic call,"Test System: AMES SALMONELLA TYPHIMURIUM, Strain/Indicator: TA98, Metabolic Activation: NONE, Method: SPOT TEST",inactive; negative
same,mutagenic call,"Test System: AMES SALMONELLA TYPHIMURIUM, Strain/Indicator: TA98, Metabolic Activation: RAT, LIVER, S-9, AROCLOR 1254, Method: SPOT TEST",inactive; negative
same,mutagenic call,"Test System: AMES SALMONELLA TYPHIMURIUM, Strain/Indicator: TA100, Metabolic Activation: NONE, Method: SPOT TEST",inactive; negative
same,mutagenic call,"Test System: AMES SALMONELLA TYPHIMURIUM, Strain/Indicator: TA100, Metabolic Activation: RAT, LIVER, S-9, AROCLOR 1254, Method: SPOT TEST",inactive; negative
same,mutagenic call,"Test System: AMES SALMONELLA TYPHIMURIUM, Strain/Indicator: TA102, Metabolic Activation: NONE, Method: SPOT TEST",inactive; negative
same,mutagenic call,"Test System: AMES SALMONELLA TYPHIMURIUM, Strain/Indicator: TA102, Metabolic Activation: RAT, LIVER, S-9, AROCLOR 1254, Method: SPOT TEST",inactive; negative
CN1CCN(c2ccc3nc(-c4ccc5nc(-c6ccc(N(CCCl)CCCl)cc6)[nH]c5c4)[nH]c3c2)CC1,mutagenic call,[1],inactive; negative
same,mutagenic call,[2],inactive; negative
same,mutagenic call,[3],inactive; negative
C1COCCOCCOCCOCCO1,mutagenic call,[1],inactive; negative
same,mutagenic call,"Test System: AMES SALMONELLA TYPHIMURIUM, Strain/Indicator: TA98, Metabolic Activation: RAT, LIVER, S-9, AROCLOR 1254, Method: STANDARD PLATE",inactive; negative
same,mutagenic call,[2],inactive; negative
same,mutagenic call,"Test System: AMES SALMONELLA TYPHIMURIUM, Strain/Indicator: TA100, Metabolic Activation: RAT, LIVER, S-9, AROCLOR 1254, Method: STANDARD PLATE",inactive; negative
same,mutagenic call,"Test System: AMES SALMONELLA TYPHIMURIUM, Strain/Indicator: TA1530, Metabolic Activation: NONE, Method: STANDARD PLATE",inactive; negative
same,mutagenic call,"Test System: AMES SALMONELLA TYPHIMURIUM, Strain/Indicator: TA1530, Metabolic Activation: RAT, LIVER, S-9, AROCLOR 1254, Method: STANDARD PLATE",inactive; negative
same,mutagenic call,[4],inactive; negative
same,mutagenic call,"Test System: AMES SALMONELLA TYPHIMURIUM, Strain/Indicator: TA1537, Metabolic Activation: RAT, LIVER, S-9, AROCLOR 1254, Method: STANDARD PLATE",inactive; negative
COc1cc(CNC(=O)C(C)Br)ccc1O (stereo not given),mutagenic call,[2],active; positive
Cc1c2ccccc2c2ccc3cccc4ccc1c2c43,mutagenic call,"Test System: AMES SALMONELLA TYPHIMURIUM, Strain/Indicator: TA100, Metabolic Activation: RAT, NADPH-FORTIFIED HOMOGENIZED HEPATOCYTES, AROCLOR 1254, Method: PREINCUBATION",active; positive
same,mutagenic call,"Test System: CHINESE HAMSTER V-79, Strain/Indicator: V-79/8-AZAGUANINE, Metabolic Activation: HAMSTER, EMBRYO, CELL-MEDIATED, Method: STANDARD PLATE",active; positive
O=NN(c1ccc([N+](=O)[O-])cc1)C1OC[C@@H](O)[C@H](O)[C@@H]1O (stereo not given in full),mutagenic call,[2],active; positive
[Co],mutagenic call,"End Point: IN VITRO MICRONUCLEUS, Test System: HUMAN LYMPHOCYTES, Metabolic Activation: NONE",active; positive
same,mutagenic call,[1],active; positive
same,mutagenic call,"Test System: AMES SALMONELLA TYPHIMURIUM, Strain/Indicator: TA98, Metabolic Activation: RAT, LIVER, S-9, PHENOBARBITAL, Method: STANDARD PLATE",inactive; negative
same,mutagenic call,[3],inactive; negative
same,mutagenic call,"Test System: AMES SALMONELLA TYPHIMURIUM, Strain/Indicator: TA102, Metabolic Activation: RAT, LIVER, S-9, PHENOBARBITAL, Method: STANDARD PLATE",inactive; negative
same,mutagenic call,"Test System: AMES SALMONELLA TYPHIMURIUM, Strain/Indicator: TA1535, Metabolic Activation: NONE, Method: STANDARD PLATE",inactive; negative
same,mutagenic call,"Test System: AMES SALMONELLA TYPHIMURIUM, Strain/Indicator: TA1535, Metabolic Activation: RAT, LIVER, S-9, PHENOBARBITAL, Method: STANDARD PLATE",inactive; negative
same,mutagenic call,[4],active; positive
same,mutagenic call,"Test System: AMES SALMONELLA TYPHIMURIUM, Strain/Indicator: TA1537, Metabolic Activation: RAT, LIVER, S-9, PHENOBARBITAL, Method: STANDARD PLATE",inactive; negative
OCc1cc2cccc3ccc4cc5ccccc5c1c4c32,mutagenic call,[1],inactive; negative
same,mutagenic call,[2],inactive; negative
CC(Oc1ccc(Oc2cnc3cc(Cl)ccc3n2)cc1)C(=O)O (stereo not given),mutagenic call,"Test System: Mouse lymphoma, Strain/Indicator: L5178Y (tk+/tk-), Metabolic Activation: None, Method: Suspension/plate",active; positive
same,mutagenic call,"Test System: Mouse lymphoma, Strain/Indicator: L5178Y (tk+/tk-), Metabolic Activation: Rat, Liver, S-9, Aroclor 1254, Method: Suspension/plate",active; positive
COc1cc(Cl)c(OC)cc1Cl,mutagenic call,"Test System: AMES SALMONELLA TYPHIMURIUM, Strain/Indicator: TA98, Metabolic Activation: HAMSTER, LIVER, S-9, AROCLOR 1254 (5 OR 10%), Method: PREINCUBATION",inactive; negative
same,mutagenic call,"Test System: AMES SALMONELLA TYPHIMURIUM, Strain/Indicator: TA98, Metabolic Activation: HAMSTER, LIVER, S-9, AROCLOR 1254 (30%), Method: PREINCUBATION",inactive; negative
same,mutagenic call,"Test System: AMES SALMONELLA TYPHIMURIUM, Strain/Indicator: TA98, Metabolic Activation: NONE, Method: PREINCUBATION",inactive; negative
same,mutagenic call,"Test System: AMES SALMONELLA TYPHIMURIUM, Strain/Indicator: TA98, Metabolic Activation: RAT, LIVER, S-9, AROCLOR 1254 (30%), Method: PREINCUBATION",inactive; negative
same,mutagenic call,"Test System: AMES SALMONELLA TYPHIMURIUM, Strain/Indicator: TA100, Metabolic Activation: HAMSTER, LIVER, S-9, AROCLOR 1254 (5 OR 10%), Method: PREINCUBATION",inactive; negative
same,mutagenic call,"Test System: AMES SALMONELLA TYPHIMURIUM, Strain/Indicator: TA100, Metabolic Activation: HAMSTER, LIVER, S-9, AROCLOR 1254 (30%), Method: PREINCUBATION",active; positive
same,mutagenic call,"Test System: AMES SALMONELLA TYPHIMURIUM, Strain/Indicator: TA100, Metabolic Activation: NONE, Method: PREINCUBATION",inactive; negative
same,mutagenic call,"Test System: AMES SALMONELLA TYPHIMURIUM, Strain/Indicator: TA100, Metabolic Activation: RAT, LIVER, S-9, AROCLOR 1254 (30%), Method: PREINCUBATION",inactive; negative
N#[N+]c1ccc(CO)cc1,mutagenic call,[3],active; positive
same,mutagenic call,"Test System: CHINESE HAMSTER V-79, Strain/Indicator: V-79/6-THIOGUANINE, Metabolic Activation: NONE",active; positive
